The text below walks through data of US10301272B2, “Carboxamide or sulfonamide substituted thiazoles and related derivatives as modulators for the orphan nuclear receptor ROR[γ]” (Phenex Pharmaceuticals AG, priority 2012, dated 2019).

The target of one test is RORγ (Homo sapiens, UniProt P51449). The test is described as follows: RORγ Gal4 Reporter Gene Assay. The class given is cell-based. An outline of the steps:
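Cells at 5×10^5/well were transfected with RORγ fragments fused to the GAL4 DNA-binding domain (CMV promoter), a 5×GAL4-site firefly luciferase reporter and CMV-Renilla luciferase for normalization. About 4 h later serum-free MEM and compound were added (vehicle ≤0.1%). Cultures at 37 °C, 5% CO2; at least triplicates.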
Background: Reporter assays use an easily measured gene product as a stand-in for the process of interest.

The target in test [1] is RORγ ligand binding domain (LBD) (Homo sapiens (Human), UniProt P51449). Briefly: TR-FRET Activity Assay (ligand sensing assay, LANCE). The conditions noted are these: for pIC50 (FRET): TR-FRET, interaction of RORγ-LBD with coactivator peptide. Background: Time-resolved FRET reads energy transfer from a long-lived donor to a nearby acceptor.
The mark [2] stands for this setting: firefly (FF) luciferase, 293T cells, read-out: pIC50 (FF) (converted).
Where [3] appears, read: renilla normalised (RENnorm) luciferase, 293T cells, read-out: pIC50 (REN) (converted).

Read-outs that look alike come from different tables or passages of the source.

Sequence of RORγ ligand binding domain (LBD) (P51449 269-508): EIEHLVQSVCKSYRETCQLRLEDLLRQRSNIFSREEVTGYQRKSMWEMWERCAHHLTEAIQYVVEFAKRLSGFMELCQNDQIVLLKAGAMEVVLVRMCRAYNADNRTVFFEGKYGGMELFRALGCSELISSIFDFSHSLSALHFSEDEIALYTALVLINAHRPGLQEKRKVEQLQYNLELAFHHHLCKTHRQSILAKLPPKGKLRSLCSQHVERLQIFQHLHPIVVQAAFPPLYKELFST
Sequence of RORγ (P51449 whole entry, looked up, the tested form may be a part): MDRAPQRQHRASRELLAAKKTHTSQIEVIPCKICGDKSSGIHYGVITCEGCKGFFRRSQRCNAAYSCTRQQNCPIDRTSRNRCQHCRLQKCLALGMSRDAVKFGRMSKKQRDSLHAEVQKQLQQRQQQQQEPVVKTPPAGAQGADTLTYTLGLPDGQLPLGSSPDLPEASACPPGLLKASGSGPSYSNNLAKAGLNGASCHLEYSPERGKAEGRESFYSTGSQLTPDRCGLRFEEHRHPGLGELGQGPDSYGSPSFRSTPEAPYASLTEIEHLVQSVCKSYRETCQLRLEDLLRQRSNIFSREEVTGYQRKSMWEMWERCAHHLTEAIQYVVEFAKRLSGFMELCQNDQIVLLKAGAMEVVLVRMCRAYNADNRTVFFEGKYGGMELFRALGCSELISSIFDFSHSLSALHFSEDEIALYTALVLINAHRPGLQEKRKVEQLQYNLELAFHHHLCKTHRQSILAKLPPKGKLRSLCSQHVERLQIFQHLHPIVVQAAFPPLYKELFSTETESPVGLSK

Turning to `CC(C)(C)NS(=O)(=O)c1ccc(-c2sc(C(=O)NC3CSC3)nc2CC2CCCCC2)cc1C(C)(C)O` [6/24], on RORγ, the “pIC50 (FF)” value was 7.3/7.9/8.0 and the “pIC50 (REN)” value is given as 7.3/7.9/8.0. The “pIC50 (FRET)” value in test [1] is on record as 7.3/7.9/8.0.

Consider `CC(C)(C)c1cc(-c2sc(C(=O)N[C@H]3C[C@H](C(=O)O)C3)nc2CC2CCCCC2)cc(C(C)(F)F)c1` [7/18], for which, at RORγ, the “pIC50 (FF)” value was 6.4/7.4/7.4 and the “pIC50 (REN)” value was 6.4/7.4/7.4. The “pIC50 (FRET)” value in test [1] is 6.4/7.4/7.4.

As to `CC(C)(C)NS(=O)(=O)c1ccc(-c2sc(C(=O)NCCN3CCOCC3)nc2CC2CCCCC2)cc1C(C)(C)O` [6/25], on RORγ, the “pIC50 (FF)” value is recorded as 5.8/6.7/6.7 and the “pIC50 (REN)” value is 5.8/6.7/6.7. In addition, the “pIC50 (FRET)” value in test [1] is listed as 5.8/6.7/6.7.

For the molecule `CC(C)(C)NS(=O)(=O)c1ccc(-c2oc(C(=O)N[C@H]3C[C@H](C(=O)NS(C)(=O)=O)C3)nc2CC2CCCCC2)c2ccccc12` [Example 102/1], at RORγ, the “pIC50 (FF)” value was 6.1/6.7/6.7 and the “pIC50 (REN)” value is 6.1/6.7/6.7. Besides, the “pIC50 (FRET)” value in test [1] is on record as 6.1/6.7/6.7.

`COc1ccc(-c2sc(C(=O)N[C@H]3C[C@H](C(=O)O)C3)nc2CC2CCCCC2)c2ccccc12` [7/20]: the results for the IC50 (at RORγ (setting [2]); at RORγ (setting [3]); in test [1]) were 251 nM, 251 nM and above 20000 nM, respectively.

With `CC(C)(C)c1cc(-c2oc(C(=O)N[C@H]3C[C@H](C(=O)O)C3)nc2CC2CCCCC2)cc(C2(C)CC2)c1` [100/20], at RORγ, the “pIC50 (FF)” value is 6.0/6.8/7.0 and the “pIC50 (REN)” value is reported as 6.0/6.8/7.0. Also, in test [1], the “pIC50 (FRET)” value was 6.0/6.8/7.0.

In the case of `CC(C)(O)CNC(=O)c1nc(CC2CCCCC2)c(-c2ccc(S(=O)(=O)NC3(C)COC3)c3ccccc23)s1` [8/5], on RORγ, the “pIC50 (FF)” value is on record as 6.4/8.5/8.7 and the “pIC50 (REN)” value is 6.4/8.5/8.7. In test [1], the “pIC50 (FRET)” value is on record as 6.4/8.5/8.7.

On to `CC(C)(C)c1cc(-c2sc(C(=O)N[C@H]3C[C@H](C(=O)O)C3)nc2CC2CCCCC2)cc(C(C)(C)O)c1` [Example 23, (trans)-3-(5-(3-(tert-Butyl)-5-(2-hydroxypropan-2-yl)phenyl)-4-(cyclohexylmethyl)-thiazole-2-carboxamido)cyclobutanecarboxylic acid], for which the “pIC50 (FF)” value against RORγ (firefly (FF) luciferase, 293T cells) turned out to be 8.2. Moreover, the IC50 in test [1] was 631 nM.

For the molecule `CC(C)(C)NS(=O)(=O)c1ccc(-c2sc(C(=O)NC3CCS(=O)(=O)CC3)nc2CC2CCCCC2)c2ccccc12` [6/6], on RORγ, the “pIC50 (FF)” value was 6.7/9.0/9.0 and the “pIC50 (REN)” value is on record as 6.7/9.0/9.0. The “pIC50 (FRET)” value in test [1] is given as 6.7/9.0/9.0.

Take `CC(C)(C)NS(=O)(=O)c1ccc(-c2oc(C(=O)NC34CCC(C(=O)O)(CC3)C4)nc2CC2CCCCC2)c2ccccc12` [100/23]: at RORγ, the “pIC50 (FF)” value is 6.1/8.3/8.4 and the “pIC50 (REN)” value was 6.1/8.3/8.4. Further, the “pIC50 (FRET)” value in test [1] was 6.1/8.3/8.4.

`CC(C)(C)c1cc(-c2sc(S(N)(=O)=O)nc2CC2CCCCC2)cc(C(C)(C)C)c1` [Example 4, 4-(Cyclohexylmethyl)-5-(3,5-di-tert-butylphenyl)thiazole-2-sulfonamide]: at RORγ, the “pIC50 (FF)” value was 6.8/6.4/6.4 and the “pIC50 (REN)” value is listed as 6.8/6.4/6.4. Also, the “pIC50 (FRET)” value in test [1] is recorded as 6.8/6.4/6.4.

As to `CC(C)(C)NS(=O)(=O)c1ccc(-c2sc(C(=O)N3CC4(CC[S+]([O-])CC4)C3)nc2CC2CCCCC2)c2ccccc12` [15/9], on RORγ, the “pIC50 (FF)” value is given as 6.4/7.8/7.9 and the “pIC50 (REN)” value is reported as 6.4/7.8/7.9. In addition, in test [1], the “pIC50 (FRET)” value is recorded as 6.4/7.8/7.9.

In the case of `CC(C)(C)NS(=O)(=O)c1ccc(-c2sc(C(=O)N3CC4CC(C3)O4)nc2CC2CCCCC2)c(Cl)c1Cl` [6/44], on RORγ, the “pIC50 (FF)” value was 7.4/7.8/8.0 and the “pIC50 (REN)” value was 7.4/7.8/8.0. Moreover, in test [1], the “pIC50 (FRET)” value is 7.4/7.8/8.0.

Take `Cc1c(C(=O)NC(C)(C)C)cc(-c2sc(C(=O)N[C@H]3C[C@H](C(=O)O)C3)nc2CC2CCCCC2)cc1C1(C)CC1` [19/7]: on RORγ, the “pIC50 (FF)” value is listed as 5.8/6.8/6.8 and the “pIC50 (REN)” value was 5.8/6.8/6.8. Moreover, in test [1], the “pIC50 (FRET)” value is 5.8/6.8/6.8.

For the molecule `O=C(c1nc(CC2CCCCC2)c(-c2ccc(S(=O)(=O)NC3CCOCC3)c3ccccc23)s1)N1CC2(CCS(=O)(=O)CC2)C1` [21/9], on RORγ, the “pIC50 (FF)” value is given as 6.2/7.3/7.4 and the “pIC50 (REN)” value was 6.2/7.3/7.4. In test [1], the “pIC50 (FRET)” value is reported as 6.2/7.3/7.4.

Take `CC(C)(C)NS(=O)(=O)c1ccc(-c2oc(C(=O)NCC3(O)CCOCC3)nc2CC2CCCCC2)c2ccccc12` [100/5]: on RORγ, the “pIC50 (FF)” value is 6.3/8.1/8.2 and the “pIC50 (REN)” value is 6.3/8.1/8.2. In addition, the “pIC50 (FRET)” value in test [1] was 6.3/8.1/8.2.

Take `CC(C)(C)NS(=O)(=O)c1ccc(-c2nc(C(=O)NC3CCS(=O)(=O)CC3)oc2CC2CCCCC2)c2ccccc12` [Example 103, 4-(4-(N-(tert-Butyl)sulfamoyl)naphthalen-1-yl)-5-(cyclohexylmethyl)-N-(1,1-dioxidotetrahydro-2H-thiopyran-4-yl)oxazole-2-carboxamide]: on RORγ, the “pIC50 (FF)” value was 6.3/7.2/7.3 and the “pIC50 (REN)” value was 6.3/7.2/7.3. For the same molecule, the “pIC50 (FRET)” value in test [1] was 6.3/7.2/7.3.

Turning to `CC(C)(C)NS(=O)(=O)c1ccc(-c2sc(C(=O)NC3CSC3)nc2CC2CCCCC2)c(Cl)c1Cl` [6/30], at RORγ, the “pIC50 (FF)” value is 7.2/8.7/8.7 and the “pIC50 (REN)” value is listed as 7.2/8.7/8.7. The “pIC50 (FRET)” value in test [1] is listed as 7.2/8.7/8.7.

With `CC(O)c1c(S(=O)(=O)NC(C)(C)C)ccc(-c2sc(C(=O)N3CC4(CCS(=O)(=O)CC4)C3)nc2CC2CCCCC2)c1Cl` (centres unmarked) [21/10], at RORγ, the “pIC50 (FF)” value was 5.9/6.7/6.7 and the “pIC50 (REN)” value is given as 5.9/6.7/6.7. For the same molecule, in test [1], the “pIC50 (FRET)” value is listed as 5.9/6.7/6.7.

On to `CSc1cnc(CNC(=O)c2nc(CC3CCCCC3)c(-c3ccc(S(=O)(=O)NC(C)(C)C)c(Cl)c3Cl)s2)s1` [6/40], for which, on RORγ, the “pIC50 (FF)” value is reported as 7.0/8.2/8.3 and the “pIC50 (REN)” value is given as 7.0/8.2/8.3. The “pIC50 (FRET)” value in test [1] was 7.0/8.2/8.3.

In the case of `CC(C)(C)c1cc(-c2nc(S(N)(=O)=O)sc2CC2CCCCC2)cc(C(C)(C)C)c1` [Example 2, 5-(Cyclohexylmethyl)-4-(3,5-di-tert-butylphenyl)thiazole-2-sulfonamide], at RORγ, the “pIC50 (FF)” value is 5.9/6.1/6.0 and the “pIC50 (REN)” value was 5.9/6.1/6.0. Besides, the “pIC50 (FRET)” value in test [1] is 5.9/6.1/6.0.

For the molecule `CC(=O)NS(=O)(=O)c1nc(-c2cc(C(C)(C)C)cc(C(C)(C)C)c2)c(CC2CCCCC2)s1` [Example 3, N-((5-(Cyclohexylmethyl)-4-(3,5-di-tert-butylphenyl)thiazol-2-yl)sulfonyl)acetamide], the IC50 on RORγ (setting [2]) and on RORγ (setting [3]) was above 20000 nM in each case. In test [1], the “pIC50 (FRET)” value is reported as 5.1.

For `CC(C)(CCNC(=O)c1nc(CC2CCCCC2)c(-c2cc(C(C)(C)C)cc(C3(C)CC3)c2)s1)C(=O)O` [Example 7, 4-(5-(3-(tert-Butyl)-5-(1-methylcyclopropyl)phenyl)-4-(cyclohexylmehthyl)thiazole-2-carboxamido)-2,2-dimethylbutanoic acid], at RORγ, the “pIC50 (FF)” value is on record as 6.3/7.0/7.0 and the “pIC50 (REN)” value is given as 6.3/7.0/7.0. Also, the “pIC50 (FRET)” value in test [1] is recorded as 6.3/7.0/7.0.

Take `O=C(c1nc(CC2CCCCC2)c(-c2ccc(S(=O)(=O)NC3CS(=O)(=O)C3)c3ccccc23)s1)N1CC2(CCS(=O)(=O)CC2)C1` [14/3]: on RORγ, the “pIC50 (FF)” value is given as 6.6/6.4/6.4 and the “pIC50 (REN)” value was 6.6/6.4/6.4. In test [1], the “pIC50 (FRET)” value is listed as 6.6/6.4/6.4.
